The structures appear in SMILES notation.

In this experiment the test system is Wnt activity. Kind of experiment: Wnt activity reporter assay (SP5 promoter firefly luciferase in SW480 cells). Particulars: Homo sapiens; SW480 cells bearing SP5 promoter luciferase reporter; 24 h after compound addition; read-out: Wnt inhibition. In kind it is cell-based. An excerpt:
The above synthesized compounds were screened using the assay procedure for Wnt activity described below.
Reporter cell lines can be generated by stably transducing cells of cancer cell lines (e.g., colon cancer) with a lentiviral construct that include a wnt-responsive promoter driving expression of the firefly luciferase gene.
Lentiviral constructs can be made in which the SP5 promoter, a promoter having eight TCF/LEF binding sites derived from the SP5 promoter, is linked upstream of the firefly luciferase gene. The lentiviral constructs can also include a hygromycin resistance gene as a selectable marker. The SP5 promoter construct can be used to transduce SW480 cells, a colon cancer cell line having a mutated APC gene that generates a truncated APC protein, leading to de-regulated accumulation of β-catenin.
Cultured SW480 cells bearing a reporter construct can be distributed at approximately 10,000 cells per well into 384 well multiwell plates. Compounds from a small molecule compound library can then be added to the wells in half-log dilutions using a three micromolar top concentration. A series of control wells for each cell type receive only buffer and compound solvent. Twenty-four hours after the addition of compound, reporter activity for luciferases can be assayed, for example, by addition of the BrightGlo luminescence reagent (Promega) and the Victor3 plate reader (Perkin Elmer). Readings can be normalized to DMSO only treated cells, and normalized activities can then be used in the IC50 calculations.
Background: In a reporter assay the amount or activity of a reporter protein is the signal.
`CN(C)Cc1cncc(-c2ccc3[nH]nc(-c4nc5c(-c6cncc(F)c6)cncc5[nH]4)c3c2)c1` [Compound 16, 1-(5-(3-(7-(5-fluoropyridin-3-yl)-3H-imidazo[4,5-c]pyridin-2-yl)-1H-indazol-5-yl)pyridin-3-yl)-N,N-dimethylmethanamine]: the IC50 was in the range of 164 to 200 nM.
Then `c1cncc(-c2ccc3[nH]nc(-c4nc5c(N6CCOCC6)cncc5[nH]4)c3c2)c1` [Compound 6, 4-(2-(5-(pyridin-3-yl)-1H-indazol-3-yl)-3H-imidazo[4,5-c]pyridin-7-yl)morpholine], with 10 to 13 nM.
Then `O=C(Nc1cncc(-c2ccc3[nH]nc(-c4nc5c(-c6ccoc6)cncc5[nH]4)c3c2)c1)C1CCCCC1` [Compound 333, N-(5-(3-(7-(Furan-3-yl)-3H-imidazo[4,5-c]pyridin-2-yl)-1H-indazol-5-yl)pyridin-3-yl)cyclohexanecarboxamide], with 26 nM; and `CC(C)CC(=O)Nc1cncc(-c2ccc3[nH]nc(-c4nc5c(N6CCN(C)CC6)cncc5[nH]4)c3c2)c1` [Compound 1, 3-methyl-N-(5-(3-(7-(4-methylpiperazin-1-yl)-3H-imidazo[4,5-c]pyridin-2-yl)-1H-indazol-5-yl)pyridin-3-yl)butanamide], with 140 to 150 nM.
The figure for `CC(C)CC(=O)Nc1cncc(-c2ccc3[nH]nc(-c4nc5c(-c6cc(F)cc(CNS(C)(=O)=O)c6)cncc5[nH]4)c3c2)c1` [Compound 373, N-(5-(3-(7-(3-Fluoro-5-(methylsulfonamidomethyl)phenyl)-3H-imidazo[4,5-c]pyridin-2-yl)-1H-indazol-5-yl)pyridin-3-yl)-3-methylbutanamide] is 5 nM; for `FC1(F)CCN(Cc2cncc(-c3ccc4[nH]nc(-c5nc6c(-c7ccsc7)cncc6[nH]5)c4c3)c2)C1` [Compound 346, 2-(5-(5-((3,3-Difluoropyrrolidin-1-yl)methyl)pyridin-3-yl)-1H-indazol-3-yl)-7-(thiophen-3-yl)-3H-imidazo[4,5-c]pyridine] it is 2 nM; for `c1cc(-c2cncc3[nH]c(-c4n[nH]c5ccc(-c6cncc(CN7CCCCC7)c6)cc45)nc23)cs1` [Compound 303, 2-(5-(5-(Piperidin-1-ylmethyl)pyridin-3-yl)-1H-indazol-3-yl)-7-(thiophen-3-yl)-3H-imidazo[4,5-c]pyridine] it is 1000 nM.
Turning to `CCC(=O)Nc1cncc(-c2ccc3[nH]nc(-c4nc5c(-c6cncc(F)c6)cncc5[nH]4)c3c2)c1` [Compound 20, N-(5-(3-(7-(5-fluoropyridin-3-yl)-3H-imidazo[4,5-c]pyridin-2-yl)-1H-indazol-5-yl)pyridin-3-yl)propionamide], the IC50 fell in the range of 1.4 to 1.8 nM.
Turning to `Fc1ccc(-c2cncc3[nH]c(-c4n[nH]c5ccc(-c6cncc(CN7CCCC7)c6)cc45)nc23)cc1` [Compound 107, 7-(4-Fluorophenyl)-2-(5-(5-(pyrrolidin-1-ylmethyl)pyridin-3-yl)-1H-indazol-3-yl)-3H-imidazo[4,5-c]pyridine], the IC50 is 52 nM.
The figure for `CC(C)CC(=O)Nc1cncc(-c2ccc3[nH]nc(-c4nc5c(N6CCCCC6)cncc5[nH]4)c3c2)c1` [Compound 199, 3-Methyl-N-(5-(3-(7-(piperidin-1-yl)-3H-imidazo[4,5-c]pyridin-2-yl)-1H-indazol-5-yl)pyridin-3-yl)butanamide] is 311 nM.
Then `c1ncc(-c2ccc3[nH]nc(-c4nc5c(N6CCCCC6)cncc5[nH]4)c3c2)cc1CN1CCCC1` [Compound 211, 7-(Piperidin-1-yl)-2-(5-(5-(pyrrolidin-1-ylmethyl)pyridin-3-yl)-1H-indazol-3-yl)-3H-imidazo[4,5-c]pyridine], with 420 nM.
Then `O=C(Nc1cncc(-c2ccc3[nH]nc(-c4nc5c(N6CCCCC6)cncc5[nH]4)c3c2)c1)C1CCC1` [Compound 217, N-(5-(3-(7-(Piperidin-1-yl)-3H-imidazo[4,5-c]pyridin-2-yl)-1H-indazol-5-yl)pyridin-3-yl)cyclobutanecarboxamide], with 39 nM; and `c1cncc(-c2ccc3[nH]nc(-c4nc5c(-c6cccnc6)cncc5[nH]4)c3c2)c1` [Compound 136, 7-(Pyridin-3-yl)-2-(5-(pyridin-3-yl)-1H-indazol-3-yl)-3H-imidazo[4,5-c]pyridine], with 35 nM.
Regarding `CC(C)CC(=O)Nc1cncc(-c2ccc3[nH]nc(-c4nc5c(-c6cccs6)cncc5[nH]4)c3c2)c1` [Compound 397, 3-Methyl-N-(5-(3-(7-(thiophen-2-yl)-3H-imidazo[4,5-c]pyridin-2-yl)-1H-indazol-5-yl)pyridin-3-yl)butanamide], the IC50 was 0.1 nM.
For `O=C(Nc1cncc(-c2ccc3[nH]nc(-c4nc5c(-c6cccc(F)c6)cncc5[nH]4)c3c2)c1)C1CC1` [Compound 91, N-(5-(3-(7-(3-Fluorophenyl)-3H-imidazo[4,5-c]pyridin-2-yl)-1H-indazol-5-yl)pyridin-3-yl)cyclopropanecarboxamide], the IC50 was determined as 2 nM.
The figure for `CN1CCN(c2cncc3[nH]c(-c4n[nH]c5ccc(-c6cncc(N)c6)cc45)nc23)CC1` [Compound 247, 5-(3-(7-(4-Methylpiperazin-1-yl)-3H-imidazo[4,5-c]pyridin-2-yl)-1H-indazol-5-yl)pyridin-3-amine] is 2 nM; for `CN1CCN(c2cncc3[nH]c(-c4n[nH]c5ccc(-c6cncc(N7CCOCC7)c6)cc45)nc23)CC1` [Compound 5, 4-(5-(3-(7-(4-methylpiperazin-1-yl)-3H-imidazo[4,5-c]pyridin-2-yl)-1H-indazol-5-yl)pyridin-3-yl)morpholine] it is 67 to 98 nM.

(Values after patent publication US10407425B2, “Indazole inhibitors of the Wnt signal pathway and therapeutic uses thereof” (Samumed, LLC, priority 2012, dated 2019).)
